{"source": "paper PMC8395767", "about": "“Worsening of the Toxic Effects of (±)Cis-4,4′-DMAR Following Its Co-Administration with (±)Trans-4,4′-DMAR: Neuro-Behavioural, Physiological, Immunohistochemical and Metabolic Studies in Mice” (International Journal of Molecular Sciences, 2021)", "key": {"mice": {"test_system": "mice", "test": "Core temperature (rectal probe), hyperthermia", "type": "in vivo", "experimental": "The effects of (±)cis-4,4′-DMAR, (±)trans-4,4′-DMAR and their co-administration were investigated by a protocol widely used in studies of “safety pharmacology” for the preclinical characterization of new molecules in rodents. This protocol includes a series of observational behavioural tests carried out in a consecutive manner that monitor the animal responses up to 5 h after compound injections. In the present study, we reported the observation of physiological (sweating, salivation, core temperature) and neuro-behavioural (detection of psychomotor agitation, spontaneous and stimulated aggressiveness, convulsions) changes occurring in mice after injection of (±)cis-4,4′-DMAR, (±)trans-4,4′-DMAR and their co-administration. Before pharmacological treatment the mouse was placed on a square plate (30 cm× 30 cm) raised from the ground (20 cm) and left free to move on the plate for 10 min (habituation period). The animal was then injected with the vehicle, substances alone ((±)cis-4,4′-DMAR or (±)trans-4,4′-DMAR) or in cis + trans co-administration and placed on the plate. From this moment, the recording time of the physiological and neuro-behavioural responses started, and these were detected in 5-min sessions.\nAfter the first 5 min, the animal was removed from the plate; the body core temperature was then measured, and the aggression tests were performed. The 5-min observation period was repeated at 15–30–60–90–120–180–240–300. Psychomotor agitation in the mouse was not simply related to an increase in spontaneous locomotion itself, but by an “unusual hyperactivity” which was characterised by rapid and sudden horizontal displacements in all directions, sustained turning behaviour, involuntary falls from the high plate during the evaluation of the tests, stereotyped movements and rearing activity. Mouse sweating and salivation were reported only if present or not. The core temperature was determined using a probe (1 mm diameter) that was gently inserted after lubrication with liquid Vaseline into the rectum of the mouse (to about 2 cm) and left in position until the temperature stabilised (about 10 s). The probe was connected to a digital thermometer. Spontaneous aggressive response was measured based on the number of times a mouse bit a grey cloth put in front of its snout. During the test, each mouse was free to move within the cage. In the case of stimulated aggressiveness, each mouse was manually restrained and held in a supine position following which an object was brought near the mouth. For both spontaneous and stimulated aggressive behaviour tests, a grey cloth was placed in front of the nose of each mouse 10 consecutive times (score 0/10 not aggressive, score 10/10 very aggressive). Convulsions were defined as a loss of righting reflexes for at least 5 s, combined with the presence of body tremors and clonic or tonic limb movements. Deaths caused by 4-4’-DMAR injection occurring during the observation period (5 h) were also reported as frequency (%) and time of death (min). Experiments were conducted inside the LARP (Centralised Preclinical Research Laboratory, University of Ferrara, Ferrara, Italy) in a thermo-stated (temperature 20–22 °C, humidity about 45–55%) and light controlled (about 150 lux) room, in which there was a background noise of about 40 ± 4 dB. The experiments, conducted in blind by trained observers working together in pairs, were videotaped and eventually analysed off-line by a different trained operator. The experiments were performed between 8:30 a.m. and 2:00 p.m.\n(§1) Sweating and salivation were expressed as frequency (e.g., % of animals that developed symptoms); psychomotor agitation was expressed as frequency (% of animals) and duration (total time in mins). Core temperature values were expressed as the difference between control temperature (before injection) and temperature following drug administration (Δ°C). […]"}, "HSP90": {"test_system": "HSP90", "test": "Immunohistochemistry, frontal cortex: HSP90", "type": "in vivo, mice", "details": "vs control", "source_text": "(§2) Following the acute death or the sacrifice of the animals (after 5-h observation period by dislocation of the spine), brains were taken. These were fixed in 4% buffered formalin and then sampled and incorporated into the paraffin (Leica ASP300 processor, Histoline TEC2900 incorporator; Leica Microsystems Srl, Buccinasco, Milano, Italy). Subsequently, the cut (performed with the Leica HistoCore autocut microtome; Leica Microsystems Srl, Buccinasco, Milano, Italy) was designed to create sections with a thickness of 5 µm for each sample.\n(§3) On 5-µm-thick paraffined […] sections, we evaluated the expression of a panel of markers: heat shock proteins (HSP27, HSP70, HSP90), SMAC/DIABLO, NF-kB, iNOS, NOX-2, NT, 8-OHDG.\nWe used a detection system composed of a biotinylated secondary antibody and HRP-conjugated streptavidin (4plus HRP Universal Detection, Biocare Medical). […] In the pictures (sections of the frontal cortex; Figure 3, Figure 4 and Figure 5) to evaluate the variation in the expression of markers (Smac, NOX2, iNOS, 8-OHdG, NT, HSP27, HSP70, HSP90) following treatments, the change in intensity of brown colour (staining of the immunohistochemical technique) in the control and treated tissue was measured. Quantification of Smac, NOX2, iNOS, 8-OHdG, NT, HSP27, HSP70 and HSP90 positive-stained areas was performed by the ImageJ software (imagej.nih.gov/ij/ Accessed date 12 May 2020). […]"}, "3-nitrotyrosine (NT)": {"test_system": "3-nitrotyrosine (NT)", "test": "Immunohistochemistry, frontal cortex: NT", "type": "in vivo, mice", "details": "vs control", "source_text": "as §2, §3\nWe used a detection system composed of a biotinylated secondary antibody and HRP-conjugated streptavidin (4plus HRP Universal Detection, Biocare Medical). 3′-,3Diaminobenzidine (DAB) and H2O2 (Betazoid DAB Chromogen Kit, Biocare Medical, Concord, CA, USA) were used as chromogen/substrate. The subsequent counterstaining with haematoxylin–eosin allowed the visualization of cell morphology and nuclei. Once this procedure was completed, the slides were mounted and observed under optical microscope. In the pictures (sections of the frontal cortex; Figure 3, Figure 4 and Figure 5) to evaluate the variation in the expression of markers (Smac, NOX2, iNOS, 8-OHdG, NT, HSP27, HSP70, HSP90) following treatments, the change in intensity of brown colour (staining of the immunohistochemical technique) in the control and treated tissue was measured. Quantification of Smac, NOX2, iNOS, 8-OHdG, NT, HSP27, HSP70 and HSP90 positive-stained areas was performed by the ImageJ software (imagej.nih.gov/ij/ Accessed date 12 May 2020). One image for each animal of the different experimental groups was processed. Positivity was expressed as an extension of the stained analysed area.\nSweating and salivation were expressed as frequency (e.g., % of animals that developed symptoms); psychomotor agitation was expressed as frequency (% of animals) and duration (total time in mins). Core temperature values were expressed as the difference between control temperature (before injection) and temperature following drug administration (Δ°C). Aggressiveness was expressed as frequency (% of animals which become aggressive) and score (number of bites). Convulsions were expressed as frequency (% of animals that developed seizure), episodes (e.g., number of seizure events), latency of first episode (sec.) and duration of each episode (sec.). Lethality was expressed as frequency (% of animals that died during the observation period (5 h) or during the following 24 h). The statistical analysis of the effects of the individual substances in different concentrations were performed using a one-way ANOVA followed by a Bonferroni test for multiple comparisons. A Student’s t-test was used to determine statistical significance (p < 0.05) between two groups. Regarding immunohistochemical analysis, positivity was expressed as the extension of stained analysed area. Results were expressed as means ± mean standard error (SEM). Data were analysed by one-way analysis of variance (ANOVA), followed by Tukey’s post-hoc test. For all tests, a p value of <0.05 was considered statistically significant. All statistical analyses were performed using GraphPad Prism 8 software for Windows (La Jolla, CA, USA)."}, "Smac/DIABLO": {"test_system": "Smac/DIABLO", "test": "Immunohistochemistry, frontal cortex: Smac/DIABLO", "type": "in vivo, mice", "source_text": "as §2, §3\nWe used a detection system composed of a biotinylated secondary antibody and HRP-conjugated streptavidin (4plus HRP Universal Detection, Biocare Medical). 3′-,3Diaminobenzidine (DAB) and H2O2 (Betazoid DAB Chromogen Kit, Biocare Medical, Concord, CA, USA) were used as chromogen/substrate. […] In the pictures (sections of the frontal cortex; Figure 3, Figure 4 and Figure 5) to evaluate the variation in the expression of markers (Smac, NOX2, iNOS, 8-OHdG, NT, HSP27, HSP70, HSP90) following treatments, the change in intensity of brown colour (staining of the immunohistochemical technique) in the control and treated tissue was measured. Quantification of Smac, NOX2, iNOS, 8-OHdG, NT, HSP27, HSP70 and HSP90 positive-stained areas was performed by the ImageJ software (imagej.nih.gov/ij/ Accessed date 12 May 2020). […] Positivity was expressed as an extension of the stained analysed area.\nas §1, with “(Δ°C). Aggressiveness was expressed as frequency (% of animals which become aggressive) and score (number of bites).” for “(Δ°C).”"}, "[1]": {"details": "10 mg/kg i.p., n=4 mice (animals of the urine excretion study)"}}, "note": "Values joined by “and” are separate entries in the source; they are usually repeats but may differ in a detail not shown here. Identical values can stand only once. Marks after values point to notes of the source that are not given here.", "data": [{"smiles": "Cc1ccc(C2OC(N)=NC2C)cc1", "note": "(stereo not drawn) [cis-4,4’-DMAR, 4-methyl-5-(4-methylphenyl)-4,5-dihydrooxazol-2-amine]", "values": [{"measurement": "Hyperthermia Variation (Δ°C)", "setting": "mice; 0.1 mg/kg i.p., n=6 mice", "value": "−0.18 ± 0.14 Δ°C"}, {"measurement": "Hyperthermia Variation (Δ°C)", "setting": "mice; 1 mg/kg i.p., n=6 mice", "value": "−0.22 ± 0.17 Δ°C"}, {"measurement": "Hyperthermia Variation (Δ°C)", "setting": "mice; 3 mg/kg i.p., n=6 mice", "value": "−0.34 ± 0.22 Δ°C"}, {"measurement": "Hyperthermia Variation (Δ°C)", "setting": "mice; [1]", "value": "−0.21 ± 0.15 Δ°C"}, {"measurement": "Hyperthermia Variation (Δ°C)", "setting": "mice; 10 mg/kg i.p., n=6 mice", "value": "−0.41 ± 0.13 Δ°C"}, {"measurement": "Hyperthermia Latency", "setting": "mice; 30 mg/kg i.p., n=6 mice", "value": "25 ± 0.25", "unit": "min"}, {"measurement": "Hyperthermia Variation (Δ°C)", "setting": "mice; 30 mg/kg i.p., n=6 mice", "value": "1.52 ± 0.11 ^c Δ°C"}, {"measurement": "Hyperthermia Variation (Δ°C)", "setting": "mice; 30 mg/kg i.p., n=6 mice, listed as (±)cis-4,4′-DMAR", "value": "1.52 ± 0.11 Δ°C"}, {"measurement": "Hyperthermia Latency", "setting": "mice; 60 mg/kg i.p., n=6 mice", "value": "7.12 ± 0.23", "unit": "min"}, {"measurement": "Hyperthermia Latency (min)", "setting": "mice; 60 mg/kg i.p., n=6 mice", "value": "7.12 ± 0.23 ^d min"}, {"measurement": "Hyperthermia Variation (Δ°C)", "setting": "mice; 60 mg/kg i.p., n=6 mice", "value": "2.22 ± 0.12 ^c Δ°C and 2.22 ± 0.12 Δ°C"}, {"measurement": "Hyperthermia Variation (Δ°C)", "setting": "mice; 60 mg/kg i.p., n=6 mice, listed as (±)cis-4,4′-DMAR", "value": "2.22 ± 0.12 Δ°C"}, {"measurement": "Hyperthermia", "setting": "mice; lower doses 0.1–10 mg/kg i.p., mice", "value": "ineffective"}, {"measurement": "Immunoreactivity of HSP90 in the frontal cortex", "setting": "HSP90; 10 and 30 mg/kg", "value": "reduced"}, {"measurement": "Immunoreactivity of 3-nitrotyrosine (NT) in the frontal cortex", "setting": "3-nitrotyrosine (NT); 10 mg/kg", "value": "reduced"}, {"measurement": "Immunoreactivity of 3-nitrotyrosine (NT) in the frontal cortex", "setting": "3-nitrotyrosine (NT); 30 mg/kg", "value": "increased"}, {"measurement": "Immunoreactivity of 3-nitrotyrosine (NT) in the frontal cortex", "setting": "3-nitrotyrosine (NT); 30 mg/kg, listed as (±)cis", "value": "statistically significant increase"}, {"measurement": "Immunoreactivity of 3-nitrotyrosine (NT) in the frontal cortex", "setting": "3-nitrotyrosine (NT); 60 mg/kg", "value": "did not affect"}, {"measurement": "Immunoreactivity of Smac/DIABLO in the frontal cortex", "setting": "Smac/DIABLO; 30 and 60 mg/kg, vs control", "value": "increased"}, {"measurement": "Immunoreactivity of Smac/DIABLO in the frontal cortex", "setting": "Smac/DIABLO; 30 and 60 mg/kg, vs control, listed as (±)cis", "value": "significant increase"}]}, {"smiles": "Cc1ccc(C2OC(N)=NC2C)cc1", "note": "(stereo not drawn) [trans-4,4’-DMAR, 4-methyl-5-(4-methylphenyl)-4,5-dihydrooxazol-2-amine]", "values": [{"measurement": "Hyperthermia Variation (Δ°C)", "setting": "mice; [1]", "value": "−0.32 ± 0.1 Δ°C"}, {"measurement": "Hyperthermia Variation (Δ°C)", "setting": "mice; 30 mg/kg i.p., n=6 mice", "value": "−0.37 ± 0.13 Δ°C"}, {"measurement": "Hyperthermia Variation (Δ°C)", "setting": "mice; 60 mg/kg i.p., n=6 mice", "value": "−0.35 ± 0.16 Δ°C"}, {"measurement": "Expression of HSP90 in the frontal cortex", "setting": "HSP90; 30 mg/kg alone", "value": "reduced"}, {"measurement": "Immunoreactivity of 3-nitrotyrosine (NT) in the frontal cortex", "setting": "3-nitrotyrosine (NT); 30 mg/kg", "value": "ineffective"}, {"measurement": "Immunoreactivity of Smac/DIABLO in the frontal cortex", "setting": "Smac/DIABLO; 30 mg/kg alone", "value": "ineffective"}]}]}
